# Experimental data from patent publication US6649626B1, “N-substituted 1-(lactone) isoquinolones for treating nervous disorders” (Centre National de la Recherche Scientifique (CNRS), priority 1999, dated 2003).
# Where two headings read alike, the source gives them in different places.
# Tests used:
# [1] = target: benzodiazepine-binding site of the GABA-A receptor; experiment: Displacement of tritiated flunitrazepam from brain membranes; conditions: read-out: IC50 Flu / BZ receptor
# [2] = target: Ro15-4513 binding (GABA-A receptor); experiment: Ro15-4513 displacement; conditions: for Ro15-4513 displacement: 100 μM
# [3] = test system: GABA-binding site of the GABA-A receptor; experiment: Displacement of tritiated muscimol from brain membranes; conditions: for Muscimol: stimulation: stimulation instead of displacement
# [4] = target: T1, benzodiazepine-binding site of the GABA-A receptor (Rattus norvegicus, UniProt P18508+P62813); experiment: Displacement of tritiated flunitrazepam from brain membranes; conditions: tissue not stated; for inhibition at 100 µM: read-out: Inhibition of the tritiated ligands % Flu (100 μM)
# T1 construct: IC50 Flu / BZ receptor; other: cerebellum (ce); other: cerebellum (ce; BZ1 subtype); other: 10 μM; cerebellum; other: 100 μM; other: 0.5 μM
# [5] = target: picrotoxin-binding site of the GABA-A receptor; experiment: Displacement of 35S-TBPS from brain membranes; set-up: species or system rats; conditions: for IC50: tissue not stated
# [6] = target: T2, α1β2γ2 subtype of the GABA receptor (Rattus norvegicus, UniProt P18508+P62813+P63138); experiment: Electrophysiology: modulation of GABA currents in Xenopus oocytes expressing recombinant GABA-A receptors; format: cell-based; conditions: for % stimulation of the GABA currents / % stimulation of the GABA currents (100 μM): α1β2γ2 in oocytes; for % stimulation of the GABA currents (100 μM): 100 μM compound with GABA
# T2 construct: expressed in transfected cells; host or cells: Xenopus laevis oocytes (cRNA injection)
# [7] = test system: recombinant receptors of the composition of αxβ2γ2 subunits in which x=1, 2, 3, 5, 6; experiment: Stimulation of the GABA current at recombinant receptors with other α subunits; format: cell-based; conditions: α1 replaced by the α2, α3, α5 or α6 subunit
# [8] = target: T3, picrotoxin-binding site of the GABA-A receptor; experiment: Displacement of 35S-TBPS from brain membranes; set-up: species or system rats; conditions: cerebellum
# T3 construct: other: cerebellum
# [9] = target: T4, picrotoxin-binding site of the GABA-A receptor; experiment: Displacement of 35S-TBPS from brain membranes; set-up: species or system rats; conditions: cortex
# T4 construct: other: cortex
# T2 sequence (P62813 28-455): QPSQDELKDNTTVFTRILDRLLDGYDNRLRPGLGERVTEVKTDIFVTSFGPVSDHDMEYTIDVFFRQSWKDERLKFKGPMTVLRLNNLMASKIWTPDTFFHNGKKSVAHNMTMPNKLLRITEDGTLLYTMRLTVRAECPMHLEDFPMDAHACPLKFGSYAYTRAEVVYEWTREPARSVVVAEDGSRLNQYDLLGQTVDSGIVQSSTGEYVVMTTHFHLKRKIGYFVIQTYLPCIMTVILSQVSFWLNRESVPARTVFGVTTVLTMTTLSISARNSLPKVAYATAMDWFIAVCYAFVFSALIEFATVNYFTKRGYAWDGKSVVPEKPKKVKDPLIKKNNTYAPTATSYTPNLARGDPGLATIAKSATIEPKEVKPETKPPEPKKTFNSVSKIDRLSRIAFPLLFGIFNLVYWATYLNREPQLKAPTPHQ
# T2 sequence (P63138 25-474 limits assumed): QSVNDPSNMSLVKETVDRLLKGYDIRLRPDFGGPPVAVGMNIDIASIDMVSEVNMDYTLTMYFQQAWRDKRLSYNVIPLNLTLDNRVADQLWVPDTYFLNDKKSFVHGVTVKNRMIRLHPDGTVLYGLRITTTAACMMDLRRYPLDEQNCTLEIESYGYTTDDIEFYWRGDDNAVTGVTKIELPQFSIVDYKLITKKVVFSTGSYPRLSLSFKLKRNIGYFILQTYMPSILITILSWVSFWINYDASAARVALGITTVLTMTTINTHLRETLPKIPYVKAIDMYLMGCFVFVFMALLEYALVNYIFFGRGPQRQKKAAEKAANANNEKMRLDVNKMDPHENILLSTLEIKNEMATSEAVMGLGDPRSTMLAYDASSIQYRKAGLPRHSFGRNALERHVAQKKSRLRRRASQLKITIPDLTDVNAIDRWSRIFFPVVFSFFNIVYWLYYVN
# T2 sequence (P18508 39-466): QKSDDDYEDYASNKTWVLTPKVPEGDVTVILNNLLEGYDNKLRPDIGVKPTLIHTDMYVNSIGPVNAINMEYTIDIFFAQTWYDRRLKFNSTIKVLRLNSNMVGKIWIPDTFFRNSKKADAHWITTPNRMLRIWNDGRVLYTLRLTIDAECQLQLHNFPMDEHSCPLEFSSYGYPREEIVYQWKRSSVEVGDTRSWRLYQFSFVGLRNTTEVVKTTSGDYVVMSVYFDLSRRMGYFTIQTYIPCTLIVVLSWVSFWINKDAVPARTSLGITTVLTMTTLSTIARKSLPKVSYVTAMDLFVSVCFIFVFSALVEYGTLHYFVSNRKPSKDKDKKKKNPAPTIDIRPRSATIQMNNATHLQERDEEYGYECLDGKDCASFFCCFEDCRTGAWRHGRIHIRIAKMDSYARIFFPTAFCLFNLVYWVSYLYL
# T1 sequence (P62813 28-455): as the sequence (P62813 28-455) above
# T1 sequence (P18508 39-466): as the sequence (P18508 39-466) above
# T1 sequence (P63138 26-474 partner): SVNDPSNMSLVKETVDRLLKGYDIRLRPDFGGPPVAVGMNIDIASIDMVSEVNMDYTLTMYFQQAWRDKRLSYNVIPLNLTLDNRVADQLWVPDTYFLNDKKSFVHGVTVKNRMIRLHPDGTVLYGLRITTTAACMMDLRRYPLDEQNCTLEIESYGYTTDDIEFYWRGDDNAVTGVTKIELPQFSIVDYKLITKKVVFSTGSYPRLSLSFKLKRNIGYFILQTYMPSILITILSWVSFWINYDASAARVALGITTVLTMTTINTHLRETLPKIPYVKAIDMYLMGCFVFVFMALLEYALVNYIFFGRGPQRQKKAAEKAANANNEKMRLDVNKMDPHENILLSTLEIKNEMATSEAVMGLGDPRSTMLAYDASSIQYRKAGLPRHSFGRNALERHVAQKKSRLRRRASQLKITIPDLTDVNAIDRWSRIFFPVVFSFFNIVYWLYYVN
smiles,measurement,setting,value
O=C1CCC(C2c3ccccc3CCN2S(=O)(=O)c2ccc(C(F)(F)F)cc2)O1 (mixture of isomers) [Compound 70],IC50,[1]; tissue not stated,> 100 µM
same,IC50,[2],> 100 µM
same,Muscimol: stimulation,[3]; 100 μM,weak stimulation at 100 μM in the cortex alone
O=C1CCC(C2c3ccccc3CCN2S(=O)(=O)c2ccc(OC(F)(F)F)cc2)O1 (mixture of isomers) [Compound 71],IC50,[4]; read-out: IC50 Flu / BZ receptor,> 100 µM
same,IC50,[2],> 100 µM
same,Muscimol: stimulation,[3]; 100 μM,weak stimulation at 100 μM in the cortex alone
COc1ccc(S(=O)(=O)N2CCc3ccccc3C2C2CCC(=O)O2)cc1 (mixture of isomers) [Compound 72],Inhibition of the tritiated ligands % Flu (100 μM),[4]; 100 μM,0%
same,IC50,[5],~100 µM
same,Ro15-4513 displacement,[2],Muscimol: 100 μM = 0% Ro15-4513: 100 μM = 0%
same,Displacement of muscimol,[3]; 100 μM,Muscimol: 100 μM = 0% Ro15-4513: 100 μM = 0%
COc1cc2c(cc1OC)[C@H]([C@@H]1CCC(=O)O1)NCC2 (racemic),melting point,,119 °C
"COc1cc2c(cc1OC)C([C@H]1C=CC(=O)O1)N(C(=O)OCc1ccccc1)CC2 (mixture of isomers) [Compound 32a, (±)-(1R,2′R)-1-(2,5-Dihydro-5-oxo-2-furyl)-2-N-benzyloxycarbonyl-6,7-dimethoxy-1,2,3,4-tetrahydroisoquinoline]",stimulation of the GABA currents (in words),[6]; α1β2γ2 receptor,only weakly stimulates
same,stimulation when the α1 subunit is replaced,[7],greatly increased
same,Displacement of muscimol,[3]; concentration not given,Displacement of muscimol = 0%
"O=C1CCC(C2c3ccccc3CCN2C(=O)OCc2ccccc2)O1 (racemic) [Compound 54, (±)-(1R,2′R)-2-N-Benzyloxycarbonyl-1-(2,3,4,5-tetrahydro-5-oxo-2-furyl)-1,2,3,4-tetrahydroisoquinoline]",IC50,[1]; cerebellum (ce; BZ1 subtype),0.04 µM
same,IC50,[1]; cortex (co = whole brain without cerebellum; BZ2 subtype),0.15 µM
same,% stimulation of the GABA currents,[6]; 0.1 μM compound,+4 ± 10%
same,% stimulation of the GABA currents (100 μM),[6],+351 ± 17%
same,% stimulation of the GABA currents (100 μM),[6]; listed as (+/−) 54,+351%
same,% of the stimulation inhibited by flumazenil,"[6]; stimulation by 10 μM compound, 1 μM flumazenil, α1β2γ2",78%
same,Inhibition of the tritiated ligands % TBPS,[5]; 10 μM,10 μM = 0%
same,IC50,[2],0.2 µM
O=C1C=C[C@H]([C@H]2c3ccccc3CCN2C(=S)Oc2ccccc2)O1 (racemic) [Compound 63],inhibition at 100 µM,[4]; 100 μM,0%
same,% stimulation of the GABA currents (100 μM),[6],+155 ± 47%
same,Ro15-4513 displacement,[2],Muscimol: 100 μM = 0% Ro15-4513: 100 μM = 0%
same,Displacement of muscimol,[3]; 100 μM,Muscimol: 100 μM = 0% Ro15-4513: 100 μM = 0%
O=C1C=C[C@@H]([C@H]2c3ccccc3CCN2C(=S)Oc2ccccc2)O1 (racemic) [Compound 64],inhibition at 100 µM,[4]; 100 μM,0%
same,% stimulation of the GABA currents (100 μM),[6],+265 ± 50%
same,IC50,[8],30 µM
same,IC50,[9],> 100 µM
same,Ro15-4513 displacement,[2],Muscimol: 100 μM = 0% Ro15-4513: 100 μM = 0%
same,Displacement of muscimol,[3]; 100 μM,Muscimol: 100 μM = 0% Ro15-4513: 100 μM = 0%
"O=C1CC[C@H]([C@H]2c3ccccc3CCN2S(=O)(=O)c2ccccc2)O1 (racemic) [Compound 65, (±)-(1R,2′R)-2-N-Benzenesulfonyl-1-(2,3,4,5-tetrahydro-5-oxo-2-furyl)-1,2,3,4-tetrahydroisoquinoline]",melting point,,177 to 179 °C
same,% stimulation of the GABA currents (100 μM),[6],+423%
same,% stimulation of the GABA currents (100 μM),[6]; listed as (+/−) 65,+423%
same,IC50,[5],~100 µM
same,IC50,[2],20 µM
same,Muscimol: stimulation,[3]; 100 μM,weak stimulation
"O=C1CCC(C2c3ccccc3CCN2S(=O)(=O)c2ccc(Cl)cc2)O1 (racemic) [Compound 66, (±)-(1R,2′R)-1-(2,3,4,5-Tetrahydro-5-oxo-2-furyl)-2-N-p-chlorobenzenesulfonyl-1,2,3,4-tetrahydroisoquinoline]",melting point,,145 to 147 °C
same,% stimulation of the GABA currents (100 μM),[6],+479%
same,% stimulation of the GABA currents (100 μM),[6]; listed as (+/−) 66,+479%
"O=C1CCC(C2c3ccccc3C=CN2C(=O)OCc2ccccc2)O1 (racemic) [Compound 75, (±)-(1R,2′R)-2-N-Benzyloxycarbonyl-1-(2,3,4,5-tetrahydro-5-oxo-2-furyl)-1,2-dihydroisoquinoline]",melting point,,109 to 111 °C
same,% stimulation of the GABA currents,[6]; 10 μM compound,+148 ± 21% (10 μM)
